Test results as given in ChEMBL document CHEMBL1145327, “Structural insights into monoamine oxidase inhibitory potency and selectivity of 7-substituted coumarins from ligand- and target-based approaches” (J Med Chem, 2006).

What was measured:
[1] = target: T1, Amine oxidase [flavin-containing] B (Rattus norvegicus, UniProt P19643); format: mitochondria, Sprague-Dawley, Mitochondria
T1 sequence (P19643 whole entry): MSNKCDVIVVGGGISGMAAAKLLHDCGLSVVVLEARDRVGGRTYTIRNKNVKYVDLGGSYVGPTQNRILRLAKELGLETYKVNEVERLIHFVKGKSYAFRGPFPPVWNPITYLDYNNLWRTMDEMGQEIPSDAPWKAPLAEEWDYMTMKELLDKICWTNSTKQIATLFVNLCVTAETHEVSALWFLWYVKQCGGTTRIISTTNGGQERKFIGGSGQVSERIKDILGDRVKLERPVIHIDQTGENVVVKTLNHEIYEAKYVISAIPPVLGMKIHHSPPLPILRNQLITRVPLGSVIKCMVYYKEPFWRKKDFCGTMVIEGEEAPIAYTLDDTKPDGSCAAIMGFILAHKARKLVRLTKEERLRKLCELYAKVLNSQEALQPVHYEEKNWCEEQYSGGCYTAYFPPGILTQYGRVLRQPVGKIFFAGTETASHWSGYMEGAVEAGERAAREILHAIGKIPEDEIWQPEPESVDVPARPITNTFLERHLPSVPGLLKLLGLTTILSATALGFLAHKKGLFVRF
Description: Inhibition of Sprague-Dawley rat brain mitochondria MAOB by continuous spectrophotometric assay

[2] = target: T2, Amine oxidase [flavin-containing] A (Rattus norvegicus, UniProt P21396); format: mitochondria, Sprague-Dawley, Mitochondria
T2 sequence (P21396 whole entry): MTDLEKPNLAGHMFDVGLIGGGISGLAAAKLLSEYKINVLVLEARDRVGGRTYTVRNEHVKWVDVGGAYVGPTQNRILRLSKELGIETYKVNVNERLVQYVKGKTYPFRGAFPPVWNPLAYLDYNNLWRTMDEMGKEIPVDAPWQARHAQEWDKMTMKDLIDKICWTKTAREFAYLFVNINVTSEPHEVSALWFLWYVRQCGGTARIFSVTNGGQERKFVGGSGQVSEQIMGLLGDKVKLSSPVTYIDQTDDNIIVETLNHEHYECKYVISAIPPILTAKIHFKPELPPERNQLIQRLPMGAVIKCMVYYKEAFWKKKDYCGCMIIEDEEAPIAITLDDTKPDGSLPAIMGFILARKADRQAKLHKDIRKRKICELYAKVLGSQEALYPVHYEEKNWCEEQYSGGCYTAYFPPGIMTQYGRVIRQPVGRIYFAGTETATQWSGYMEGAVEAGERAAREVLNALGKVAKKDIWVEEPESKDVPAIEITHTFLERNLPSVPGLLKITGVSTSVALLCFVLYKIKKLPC
Description: Inhibition of Sprague-Dawley rat brain mitochondria MAOA by continuous spectrophotometric assay

Row | Compound | IC50 [1] | IC50 [2]
1 | Cc1c(C)c2ccc(Oc3ccccc3)cc2oc1=O | 3.24 µM | –
2 | Cc1c(C)c2ccc(S(=O)(=O)Cc3ccccc3)cc2oc1=O | 2.75 µM | 18.6 µM
3 | Cc1c(C)c2ccc(SCc3ccccc3)cc2oc1=O | 0.0398 µM | 10 µM
4 | Cc1c(C)c2ccc(OCS(=O)(=O)c3ccccc3)cc2oc1=O | 0.871 µM | 2.82 µM
5 | Cc1cc2ccc(OCc3ccccc3)cc2oc1=O | 0.00661 µM | 5.5 µM
6 | Cc1c(C)c2ccc(OC[C@@H](O)c3ccccc3)cc2oc1=O | 0.0282 µM | 10 µM
7 | Cc1c(C)c2ccc(OCCOc3ccccc3)cc2oc1=O | 0.0269 µM | 10.2 µM
8 | O=C(OCc1ccc2ccc(=O)oc2c1)c1ccccc1 | 2.4 µM | 9.55 µM
9 | Cc1ccc(S(=O)(=O)N(C)c2ccc3c(C)c(C)c(=O)oc3c2)cc1 | – | 4.57 µM
10 | Cc1c(C)c2ccc(CCc3ccccc3)cc2oc1=O | 0.457 µM | 7.08 µM
11 | Cc1cc2ccc(OCc3cccc(Cl)c3)cc2oc1=O | 0.00513 µM | 12.6 µM
12 | Cc1c(C)c2ccc(OC/C=C/c3ccccc3)cc2oc1=O | 0.112 µM | –
13 | Cc1c(C)c2ccc(OC[C@H](O)c3ccccc3)cc2oc1=O | 0.302 µM | 3.24 µM
14 | Cc1c(C)c2ccc(OCC(O)c3ccccc3)cc2oc1=O (racemic) | 0.0708 µM | 10 µM
